Test results: patent US9700046B2, “Herbicidal agents containing aclonifen” (BAYER CROPSCIENCE AG, priority 2012, dated 2017)

Key:
[1] = tested on: Lolium spp. resistant to HRAC group A; experiment: Greenhouse experiment, post-emergence treatment of resistant ryegrass biotypes (HRAC group A resistant); format: in vivo; conditions: post-emergence (PO, BBCH 11), about 3 weeks after application, dose g of AS/ha: aclonifen 225, pendimethalin 300, diflufenican 30, mixture 225 + 300 + 30, pinoxaden + cloquintocet-mexyl 60 + 15
Method: (§1) In the standard design of the test, seeds of various broad-leaved weed and weed grass biotypes (origins) were sown in a 8-13 cm diameter pot filled with natural soil of a standard field soil (loamy silt; non-sterile) and covered with a covering soil layer of about 1 cm. The pots were then cultivated in a greenhouse (12-16 h light, temperature day 20-22° C., night 15-18° C.) until the time of application. The pots were treated on a laboratory track sprayer with spray liquors comprising the compositions according to the invention, mixtures of the prior art or components used individually. Application of the active compounds or active compound combinations formulated as WG, WP, EC or otherwise was carried out at the appropriate growth stages of the plants. The amount of water used for spray application was 100-600 l/ha. After the treatment, the plants were returned to the greenhouses.
(§2) About 3 weeks after the application, the soil action or/and foliar action was assessed visually according to a scale of 0-100% in comparison to an untreated comparative group: 0%=no noticable effect compared to the untreated comparative group; 100%=full effect compared to the untreated comparative group.
(§3) 2. Post-emergence action against weeds: seeds of various broad-leaved weed and weed grass biotypes (origins) were sown in a 8-13 cm diameter pot filled with natural soil of a standard field soil (loamy silt; non-sterile) and covered with a covering soil layer of about 1 cm. […]
(§4) Insofar as herbicidal effects of the compositions according to the invention compared to mixtures of the prior art or compared to components applied individually against economically important mono- and dicotyledonous harmful plants were the center of attention, the synergistic herbicidal activities were calculated using Colby's formula (cf. S. R. Colby; Weeds 15 (1967), 20-22): E^C=(A+B+C)−(A×B+A×C+B×C)/100+(A×B×C)/10000 where: […]
(§5) Δ=difference (%) of the measured value (%) to the expected value (%) (measured value minus expected value). […]

[2] = tested on: Lolium spp. resistant to HRAC group B; experiment: Greenhouse experiment, post-emergence treatment of resistant ryegrass biotypes (HRAC group B resistant); format: in vivo; conditions: post-emergence (PO, BBCH 11), about 3 weeks after application, dose g of AS/ha: aclonifen 225, pendimethalin 300, diflufenican 30, mixture 225 + 300 + 30, mesosulfuron + iodosulfuron + mefenpyr 15 + 3 + 45
Method: as §1, §2, §3, §4, §5

SMILES | herbicidal effect (visual assessment, scale 0-100% vs untreated), measured value [1] | herbicidal effect (visual assessment, scale 0-100% vs untreated), measured value [2]
CCC(CC)Nc1c([N+](=O)[O-])cc(C)c(C)c1[N+](=O)[O-] [(B) pendimethalin, N-(1-ethylpropyl)-3,4-dimethyl-2,6-dinitrobenzenamine] | 5% | 0%
O=C(Nc1ccc(F)cc1F)c1cccnc1Oc1cccc(C(F)(F)F)c1 [(C) diflufenican, N-(2,4-difluorophenyl)-2-[3-(trifluoromethyl)phenoxy]-3-pyridinecarboxamide] | 10% | 5%
Nc1c([N+](=O)[O-])ccc(Oc2ccccc2)c1Cl [(A) aclonifen, 2-chloro-6-nitro-3-phenoxybenzenamine] | 25% | 50%
